Assay results: patent US7883893B2, “Method to assay test substances” (priority 2005, dated 2011)
Where “and” joins values, the source holds several entries; their conditions need not be identical. Equal values may be shown once. Entries after “also recorded” stand apart in the source; their conditions may differ.

What was measured:
Type in all cases: cell-based
Kir2.1 = experiment: Rb+ efflux of 293 cells stably expressing Kir2.1 incubated with BFA without MTSET treatment; conditions: BFA 3 h, absence of MTSET treatment (data not shown)
Procedure: (§1) Rb^+ Flux Assay and Atomic Absorption Spectrometry. All assays shown were performed at room temperature in poly(L-lysine) (0.1 mg/ml)-coated 24-well microplates. For experiments with transiently transfected cells, ˜1×10^5 cells were seeded in each well the day before transfection (0.3 μg of DNA per well). Sodium butyrate at 5 mM was added 6-8 h after transfection. The assays were performed 24 h after transfection. HEK 293 cells stably expressing either Kir2.1 or Kir2.1Y channel were seeded with a cell density of 2×10^5 cells per well. To enhance expression, 5 mM sodium butyrate was added 4-6 h after seeding. Cells then were cultured continuously for 16-20 h before experiments.
(§2) Rb^+ Efflux. […] The Rb^+ concentration in each sample was analyzed using the ICR 8000. Rb^+ efflux (%) was determined as: 100%×[Rb^+]sup/([Rb^+]sup+[Rb^+]lysate) where [Rb^+]sup represents the Rb^+ concentration in the supernatant, and [Rb^+]lysate represents the Rb^+ concentration in the cell lysate.
In the case of Kir2.1, we observed reproducible ˜30% reduction over the same period of incubation (data not shown). […] For Kir2.1Y, the combination of quantitative elimination of surface channel activity by MTSET, the >90% activity recovery, and little detectable reduction of Rb^+ efflux in the presence of BFA then would predict a 2-fold increase of protein signal on the cell surface. […]

Kir2.1Y channel [1] = experiment: FRAC: recovery of Kir2.1Y channel activity (Rb+ efflux) after MTSET chemobleaching
From the text: To assay the transit time of nacently surfaced receptor, we first modify, inhibit, or change (pulse) accessible functional molecules on the cell surface and then monitor the recovery of the original function/activity at subsequent time points (chase). One thus may determine the time required to populate the cell surface with newly inserted cell surface molecules (FIG. 1). Designing versions of this assay involves consideration of at least four factors. (i) A functional assay preferably monitors activity predominantly or only from molecules on the cell surface. […] (iii) The activity detection should be relatively short compared with the time required to repopulate the cell surface with functional molecules. (iv) The pulse should be rapid, quantitative, and optionally irreversible, thereby allowing detection of the activity contributed only by the newly arrived (or newly activated) proteins on the cell surface. These are considerations only, rather than mandatory properties. Deviation from one of these considerations may involve compensation by another. Furthermore, one of ordinary skill in the art will appreciate that treatment of cell surfaces can be restricted to a desirable area, such as the apical surface of epithelial cells. Thus, spatially restricted populations of cell surface receptors can be affected.
Rb^+ Flux Assay and Atomic Absorption Spectrometry. All assays shown were performed at room temperature in poly(L-lysine) (0.1 mg/ml)-coated 24-well microplates. For experiments with transiently transfected cells, ˜1×10^5 cells were seeded in each well the day before transfection (0.3 μg of DNA per well). Sodium butyrate at 5 mM was added 6-8 h after transfection. The assays were performed 24 h after transfection. […]
as §2, with “lysate. […]” for “lysate.”

Kir2.1Y channel [2] = experiment: Rb+ efflux of 293 cells stably expressing Kir2.1Y incubated with BFA without MTSET treatment
Procedure: as §1
Rb^+ Efflux. To load Rb^+ into cells, we incubated cells in 0.5 ml per well 50/50 DMEM/F12 complete growth medium containing ˜5 mM RbCl at 37° C. for 3-4 h. Cells then were washed twice quickly with 1 ml per well non-Rb^+ medium to remove residual Rb^+. […] The Rb^+ concentration in each sample was analyzed using the ICR 8000. Rb^+ efflux (%) was determined as: 100%×[Rb^+]sup/([Rb^+]sup+[Rb^+]lysate) where [Rb^+]sup represents the Rb^+ concentration in the supernatant, and [Rb^+]lysate represents the Rb^+ concentration in the cell lysate. […]

wild-type Kir2.1 = molecular target: T1, wild-type Kir2.1 (Homo sapiens, UniProt P63252); experiment: Rb+ flux assay of wild-type Kir2.1 with MTSET
T1 sequence (P63252 1-427): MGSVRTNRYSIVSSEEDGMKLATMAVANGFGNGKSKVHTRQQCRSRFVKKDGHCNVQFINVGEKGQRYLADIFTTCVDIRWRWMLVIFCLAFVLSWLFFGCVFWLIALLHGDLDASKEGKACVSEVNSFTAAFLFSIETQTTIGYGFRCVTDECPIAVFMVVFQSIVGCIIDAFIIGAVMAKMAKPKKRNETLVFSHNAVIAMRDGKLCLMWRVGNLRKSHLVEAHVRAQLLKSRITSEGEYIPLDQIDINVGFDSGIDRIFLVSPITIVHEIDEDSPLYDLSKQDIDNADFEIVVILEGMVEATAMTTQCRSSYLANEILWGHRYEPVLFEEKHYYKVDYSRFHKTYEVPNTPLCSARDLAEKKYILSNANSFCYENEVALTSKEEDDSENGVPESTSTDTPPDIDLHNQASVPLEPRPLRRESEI
From the text: (§3) Earlier reports using electrophysiological recording have shown that membrane-nonpermeable MTS reagents such as MTSET reduce or abolish the current of Kir2.1 by covalently modifying the reduced form of cysteine residues already present in the channel protein or introduced by site-directed mutagenesis (18). It is not known whether or to what extent the modifications by MTS reagents will affect channel activity measured by a Rb^+ flux assay. We tested several cysteine positions of Kir2.1 mutants using MTSET, a positively charged cysteinyl sulfhydryl-specific reagent.

Kir2.1Y channel [3] = experiment: Rb+ efflux assay of 293 cells stably expressing Kir2.1Y, with MTSET treatment; conditions: stable Kir2.1Y line, FIG. 2c
Procedure: as §1
Rb^+ Efflux. To load Rb^+ into cells, we incubated cells in 0.5 ml per well 50/50 DMEM/F12 complete growth medium containing ˜5 mM RbCl at 37° C. for 3-4 h. […] The Rb^+ concentration in each sample was analyzed using the ICR 8000. Rb^+ efflux (%) was determined as: 100%×[Rb^+]sup/([Rb^+]sup+[Rb^+]lysate) where [Rb^+]sup represents the Rb^+ concentration in the supernatant, and [Rb^+]lysate represents the Rb^+ concentration in the cell lysate.
(§4) To monitor the specificity of the Rb^+ assay and the effectiveness of Rb^+ detection by atomic absorption spectrometry (19), we measured the Rb^+ uptake signals of transiently transfected cells at different times of incubation. […]

Kir2.1Y channel [4] = experiment: Rb+ influx assay of HEK 293 cells transiently transfected with Kir2.1Y, with MTSET treatment; conditions: MTSET treatment before the assay (2.5 mM per FIG. 2 legend)
Procedure: as §1
Rb^+ Influx. To perform the assay, cells first were incubated in 50/50 DMEM/F12 complete growth medium containing 5 mM RbCl for the indicated time periods before the medium was quickly aspirated. Cells then were washed twice quickly with non-Rb^+ DMEM/F12 medium and lysed with 0.5 ml of 0.1% SDS per well. The Rb^+ concentration in cell lysates was measured by atomic absorption spectrophotometry (ICR8000, Aurora Biomed, Vancouver), according to the manufacturer's user manual.
as §4

Kir2.1 mutation of C149 = experiment: Electrophysiological recording and Rb+ assay of Kir2.1 C149 mutant with MTSET; conditions: electrophysiological recording and Rb+ assay (data not shown)
From the text: as §3

Q: With `C[C@H]1CCC/C=C/[C@@H]2C[C@H](O)C[C@H]2[C@H](O)/C=C/C(=O)O1` [BFA, Brefeldin A] as the compound, how does the “reduction of Rb+ efflux activity” value (Kir2.1) read?
A: Its value is about 30%.

Q: What about the activity recovery (Kir2.1Y channel [1]; 1 μM BFA at 37° C. for 3 h, added immediately after 5-min MTSET treatment (FIG. 5a)) of the same compound?
A: The activity recovery was < 20% and 20%.

Q: What about the “BFA concentration at which the effect reaches a plateau” value (Kir2.1Y channel [1]; recovery at 3 h, 37° C., FIG. 5b) of the same compound?
A: The value was over 0.6 µM.

Q: And the “sensitivity of surface channel activity to BFA concentrations” value (Kir2.1Y channel [2]; absence of MTSET treatment, 3-h incubation, FIG. 5b)?
A: Its value is “no sensitivity”.

Q: What about the “effect on activity of channels already on the cell surface (Rb+ efflux)” value (Kir2.1Y channel [2]; without MTSET treatment, 3-h incubation with BFA) of the same compound?
A: The value was “did not affect the activity; also recorded: did not result in a detectable reduction”.

Q: With `C[N+](C)(C)CCSS(C)(=O)=O.[Br-]` [MTSET, [2-(trimethylammonium)ethyl]methanethiosulfonate bromide] as the compound, how does the “effect of MTSET on channel activity” value (wild-type Kir2.1) read?
A: Its value is “quantitatively nullified”.

Q: And the “Rb+ efflux signal after MTSET treatment” value (Kir2.1Y channel [3])?
A: The value was “only background signals were observed”.

Q: What about the “specific Rb+ uptake signal abolished” value (Kir2.1Y channel [4]) of the same compound?
A: The value was over 80%.

Q: And the “sensitivity to MTSET” value (Kir2.1 mutation of C149)?
A: The value was “loss of sensitivity”.

Q: With `C[C@@H]1C[C@@H]([C@H](O)CC2CC(=O)NC(=O)C2)C(=O)[C@@H](C)C1` [cycloheximide] as the compound, how does the activity recovery (Kir2.1Y channel [1]; cycloheximide in FRAC experiments (data not shown)) read?
A: Its activity recovery is 40%.
